Experimental findings from patent US20190126075A1, “FOOD AND DRINK PRODUCT CONTAINING POORLY DIGESTIBLE COMPOUND AND COLONIC-HYDROGEN-GAS PRODUCING AGENT” (Kyodo Milk Industry Co., Ltd., priority 2015, published 2019) are described below.

The subject of test [1] is fecal bacteria. The test is described as follows: H2 production in fecal incubation system, single digestion-resistant components (Example 1). In kind it is cell-based, human. As to conditions: final concentration 0.5%; for subjects whose fecal samples showed a sample/control ratio of 10 or higher: 10 subjects; for ratio of the H2 production concentration in sample relative to control: 37° C. for 24 hours. An excerpt:
Twenty-three different types of digestion-resistant components (cellulose, isomaltooligosaccharide, lactose, fructooligosaccharide, galactooligosaccharide, cellobiose, xylooligosaccharide, xylitol, sorbitol, erythritol, maltitol, mannitol, pectin, sodium alginate, glucomannan, lignin, chitin, chitosan, resistant starch, resistant dextrin, reduced resistant dextrin, kale, or young barley leaf) were each diluted with phosphate buffered saline (PBS) to adjust the concentration to 2.5% (w/v). Among these components, those which were not completely dissolved were used in a suspended state. The control used was a PBS solution not containing any of these components.
Fecal samples were collected from 10 human healthy adult subjects (7 male, 3 female, average aged 35.8), and were used within 5 hours after defecation.
(§1) Twenty milliliters of an anaerobic dilution solution (a solution prepared by dissolving KH2PO4, Na2HPO4, L-cysteine hydrochloride, Tween 80, and 0.1% Resazurin in a vial, jet-injecting N2 and CO2 (80%, 20%) into the vial, and autoclaving the vial sealed with a butyl rubber stopper) was added to 5 g of each of the collected samples, and the mixture was stirred by vortexing and then centrifuged (at 1000 g for 1 min.) to remove solids such as undigested food debris. 160 μL of each of the fecal suspension supernatants harboring fecal bacteria was dispensed into an Eppendorf tube, and 40 μL of each of the prepared solutions of digestion-resistant components in PBS was added to each of the Eppendorf tubes (final concentrations of digestion-resistant components: 0.5%). The Eppendorf tubes containing a mixture of fecal suspension and digestion-resistant component were placed into vial bottles (40 mm×75 mm, 50 mL) while the lids of the tubes and bottles were left open, and a mixed gas of N2 and CO2 (79.8%, 20.2%) was jet-injected to render the Eppendorf tubes and the bottles anaerobic. The vials were sealed with butyl rubber stoppers and incubated in an incubator (at 37° C. for 24 hours). The experiments were done in duplicate per sample, with each experiment being repeated three times.
(§2) Half a milliliter of the gas in each of the vial bottles was collected in a 1.0 mL gastight syringe (produced by Hamilton Company) and analyzed by TRIlyzer (Taiyo Nippon Sanso Corporation). In this process, when concentration exceeded the detection limit, 1 mL of the sample was injected into a 50 mL vial bottle, diluted 50-fold, and subjected to concentration measurement. Before gas collection, the gas in the vial bottles was stirred five times using the syringe.
The ratio of the H2 production concentration in each of the samples relative to that in the control was calculated, and those sample/control ratios of 10 or higher are shaded in the table (Table 1).

Test [2] deals with fecal bacteria. The test is described as follows: H2 production in fecal incubation system, single components vs mixture of three (Example 2). In kind it is cell-based, human. As to conditions: 14 subjects; 0.8% solution of each component in PBS. The procedure:
as §1, §2
Each of maltitol, galactooligosaccharide and glucomannan was dissolved in PBS to give a 0.8% solution. Similarly, in order to prepare a mixed solution of the three components, these components were mixed at a concentration of 0.8% each, and dissolved in PBS. The control used was a PBS solution not containing any of these components.
Fecal samples from 14 human healthy adult subjects (11 male, 3 female, average aged 40.9) were used.
Fecal treatment and incubation, and H2 concentration measurement, were performed by the same procedures as in Example 1.

Marks after values point to notes of the source that are not given here.

`OC[C@@H](O)[C@@H](O)CO` [Erythritol, erythritol]: in the test on fecal bacteria [1], the “subjects whose fecal samples showed a sample/control ratio of 10 or higher” value is reported as 2 of 10. The “ratio of the H2 production concentration in sample relative to control” value (“ratio … in sample relative to control” for short) in the test with fecal bacteria [1] (Subject No. 1 fecal sample) was 12.7*; with fecal bacteria [1] (Subject No. 2 fecal sample), 27.6*; in the test with fecal bacteria [1] (Subject No. 3 fecal sample), 3.8; with fecal bacteria [1] (Subject No. 4 fecal sample), 1.5; with fecal bacteria [1] (Subject No. 5 fecal sample), 7.1; with fecal bacteria [1] (Subject No. 6 fecal sample), 1.8. For the same compound, the “ratio … in sample relative to control” value is recorded as 4.0 in the test on fecal bacteria [1] (Subject No. 7 fecal sample), 1.8 in the test on fecal bacteria [1] (Subject No. 8 fecal sample), 1.0 with fecal bacteria [1] (Subject No. 9 fecal sample) and 2.1 in the test with fecal bacteria [1] (Subject No. 10 fecal sample).

Turning to `OC[C@@H](O)[C@@H](O[C@H]1O[C@H](CO)[C@@H](O)[C@H](O)[C@H]1O)[C@H](O)[C@@H](O)CO` [Maltitol, 4-O-α-D-glucopyranosyl-D-glucitol], in the test with fecal bacteria [2], the “subjects whose fecal samples showed a sample/control H2 production concentration ratio of 2 or higher” value is on record as 9 of 14. Besides, in the test with fecal bacteria [2], the “subjects whose fecal samples showed a sample/control H2 production concentration ratio of 3 or higher” value was 5 of 14. Also, the “subjects whose fecal samples showed a sample/control H2 production concentration ratio of 5 or higher” value in the test on fecal bacteria [2] is on record as 2 of 14. In addition, the “subjects whose fecal samples showed a sample/control ratio of 10 or higher” value in the test with fecal bacteria [1] is 6 of 10. For the same compound, the “ratio … in sample relative to control” value in the test on fecal bacteria [1] (Subject No. 1 fecal sample) is reported as 12.5*; in the test on fecal bacteria [1] (Subject No. 2 fecal sample), 7.2; in the test with fecal bacteria [1] (Subject No. 3 fecal sample), 386.6*; in the test with fecal bacteria [1] (Subject No. 4 fecal sample) it was 22.1*; in the test on fecal bacteria [1] (Subject No. 5 fecal sample), 2.6; in the test on fecal bacteria [1] (Subject No. 6 fecal sample), 8.4. Also, the “ratio … in sample relative to control” value is 315.5* with fecal bacteria [1] (Subject No. 7 fecal sample), 0.8 in the test on fecal bacteria [1] (Subject No. 8 fecal sample), 55.6* in the test on fecal bacteria [1] (Subject No. 9 fecal sample) and 32.3* in the test with fecal bacteria [1] (Subject No. 10 fecal sample).

`OC[C@@H](O)[C@@H](O)[C@H](O)[C@@H](O)CO` [Sorbitol, sorbitol]: the “subjects whose fecal samples showed a sample/control ratio of 10 or higher” value in the test on fecal bacteria [1] was 4 of 10. Also, the “ratio … in sample relative to control” value with fecal bacteria [1] (Subject No. 1 fecal sample) was 31.6*; in the test with fecal bacteria [1] (Subject No. 2 fecal sample), 9.6; in the test on fecal bacteria [1] (Subject No. 3 fecal sample), 33.0*; in the test on fecal bacteria [1] (Subject No. 4 fecal sample) it was 54.8*; with fecal bacteria [1] (Subject No. 5 fecal sample), 3.4; in the test on fecal bacteria [1] (Subject No. 6 fecal sample), 4.2. Besides, the “ratio … in sample relative to control” value is given as 68.6* in the test with fecal bacteria [1] (Subject No. 7 fecal sample), 1.7 in the test on fecal bacteria [1] (Subject No. 8 fecal sample), 0.1 in the test with fecal bacteria [1] (Subject No. 9 fecal sample) and 4.5 in the test with fecal bacteria [1] (Subject No. 10 fecal sample).

As for “4′-galactosyllactose [Galactooligosaccharide]”, the “subjects whose fecal samples showed a sample/control H2 production concentration ratio of 2 or higher” value with fecal bacteria [2] is 8 of 14. Moreover, in the test on fecal bacteria [2], the “subjects whose fecal samples showed a sample/control H2 production concentration ratio of 3 or higher” value was 0 of 14. Further, the “subjects whose fecal samples showed a sample/control H2 production concentration ratio of 5 or higher” value in the test with fecal bacteria [2] is given as “not in any”. Moreover, in the test with fecal bacteria [1], the “subjects whose fecal samples showed a sample/control ratio of 10 or higher” value is recorded as 5 of 10. Also, the “ratio … in sample relative to control” value in the test on fecal bacteria [1] (Subject No. 1 fecal sample) was 5.3; in the test on fecal bacteria [1] (Subject No. 2 fecal sample), 18.5*; with fecal bacteria [1] (Subject No. 3 fecal sample), 35.8*; in the test with fecal bacteria [1] (Subject No. 4 fecal sample), 16.9*; with fecal bacteria [1] (Subject No. 5 fecal sample), 15.4*; with fecal bacteria [1] (Subject No. 6 fecal sample) it was 22.1*. Also, the “ratio … in sample relative to control” value with fecal bacteria [1] (Subject No. 7 fecal sample) was found to be 0.8; in the test on fecal bacteria [1] (Subject No. 8 fecal sample), 0.8; in the test on fecal bacteria [1] (Subject No. 9 fecal sample) it was 0.1; with fecal bacteria [1] (Subject No. 10 fecal sample), 5.9.

For the compound `OC[C@H]1O[C@@H](O[C@H]2[C@H](O)[C@@H](O)C(O)O[C@@H]2CO)[C@H](O)[C@@H](O)[C@H]1O` (stereo partly shown) [Lactose, lactose], in the test with fecal bacteria [1], the “subjects whose fecal samples showed a sample/control ratio of 10 or higher” value is on record as 4 of 10. Also, the “ratio … in sample relative to control” value in the test with fecal bacteria [1] (Subject No. 1 fecal sample) is given as 4.9; in the test with fecal bacteria [1] (Subject No. 2 fecal sample), 9.5; with fecal bacteria [1] (Subject No. 3 fecal sample), 36.6*; with fecal bacteria [1] (Subject No. 4 fecal sample), 28.7*; in the test with fecal bacteria [1] (Subject No. 5 fecal sample), 22.4*; in the test on fecal bacteria [1] (Subject No. 6 fecal sample), 22.1*. For the same compound, the “ratio … in sample relative to control” value in the test on fecal bacteria [1] (Subject No. 7 fecal sample) came to 0.5; in the test with fecal bacteria [1] (Subject No. 8 fecal sample), 0.7; with fecal bacteria [1] (Subject No. 9 fecal sample) it was 0.1; with fecal bacteria [1] (Subject No. 10 fecal sample) it was 7.1.

On to `OC[C@@H](O)[C@@H](O)[C@H](O)[C@H](O)CO` [Mannitol, mannitol], for which the “subjects whose fecal samples showed a sample/control ratio of 10 or higher” value with fecal bacteria [1] is 5 of 10. Further, the “ratio … in sample relative to control” value is listed as 2.2 in the test with fecal bacteria [1] (Subject No. 1 fecal sample); 28.2* in the test with fecal bacteria [1] (Subject No. 2 fecal sample); 234.7* in the test with fecal bacteria [1] (Subject No. 3 fecal sample); 81.9* in the test with fecal bacteria [1] (Subject No. 4 fecal sample); 6.6 in the test with fecal bacteria [1] (Subject No. 5 fecal sample); 76.2* with fecal bacteria [1] (Subject No. 6 fecal sample). For the same compound, the “ratio … in sample relative to control” value in the test on fecal bacteria [1] (Subject No. 7 fecal sample) is listed as 54.3*; with fecal bacteria [1] (Subject No. 8 fecal sample) it was 1.7; with fecal bacteria [1] (Subject No. 9 fecal sample), 0.0; with fecal bacteria [1] (Subject No. 10 fecal sample) it was 3.5.

On to `OC[C@@H](O)[C@H](O)[C@@H](O)CO` [Xylitol, xylitol], for which, in the test on fecal bacteria [1], the “subjects whose fecal samples showed a sample/control ratio of 10 or higher” value is recorded as 6 of 10. Besides, the “ratio … in sample relative to control” value with fecal bacteria [1] (Subject No. 1 fecal sample) is 18.4*; in the test with fecal bacteria [1] (Subject No. 2 fecal sample), 11.1*; with fecal bacteria [1] (Subject No. 3 fecal sample) it was 40.2*; in the test with fecal bacteria [1] (Subject No. 4 fecal sample), 72.4*; with fecal bacteria [1] (Subject No. 5 fecal sample) it was 8.8; with fecal bacteria [1] (Subject No. 6 fecal sample), 3.2. Moreover, the “ratio … in sample relative to control” value is reported as 1.4 in the test on fecal bacteria [1] (Subject No. 7 fecal sample), 1.9 in the test on fecal bacteria [1] (Subject No. 8 fecal sample), 12.5* with fecal bacteria [1] (Subject No. 9 fecal sample) and 60.2* with fecal bacteria [1] (Subject No. 10 fecal sample).

As for `O=C[C@H](O)[C@@H](O)[C@H](O[C@@H]1O[C@H](CO)[C@@H](O)[C@H](O)[C@H]1O)[C@H](O)CO` [Cellobiose, cellobiose], the “subjects whose fecal samples showed a sample/control ratio of 10 or higher” value in the test on fecal bacteria [1] is given as 7 of 10. Further, the “ratio … in sample relative to control” value with fecal bacteria [1] (Subject No. 1 fecal sample) is 25.7*; in the test on fecal bacteria [1] (Subject No. 2 fecal sample), 37.0*; with fecal bacteria [1] (Subject No. 3 fecal sample), 67.3*; with fecal bacteria [1] (Subject No. 4 fecal sample), 76.5*; in the test with fecal bacteria [1] (Subject No. 5 fecal sample) it was 8.1; with fecal bacteria [1] (Subject No. 6 fecal sample), 52.0*. The “ratio … in sample relative to control” value is listed as 3.1 with fecal bacteria [1] (Subject No. 7 fecal sample), 7.5 with fecal bacteria [1] (Subject No. 8 fecal sample), 46.4* in the test on fecal bacteria [1] (Subject No. 9 fecal sample) and 18.9* with fecal bacteria [1] (Subject No. 10 fecal sample).
